Measurements: ChEMBL document CHEMBL3639362, “Pyrrolopyrazoles, potent kinase inhibitors” (2013)

Molecular target: Serine/threonine-protein kinase PAK 4 (Homo sapiens, UniProt O96013)
Test: Enzymatic Assay: The enzymatic activity of PAK4 KD was measured by its ability to catalyzed the transfer of a phosphate residue from a nucleoside triphosphate to an amino acid side chain of a commercially available peptide (amino acid sequence EVPRRKSLVGTPYWM).

Chain of Serine/threonine-protein kinase PAK 4 (O96013 whole entry): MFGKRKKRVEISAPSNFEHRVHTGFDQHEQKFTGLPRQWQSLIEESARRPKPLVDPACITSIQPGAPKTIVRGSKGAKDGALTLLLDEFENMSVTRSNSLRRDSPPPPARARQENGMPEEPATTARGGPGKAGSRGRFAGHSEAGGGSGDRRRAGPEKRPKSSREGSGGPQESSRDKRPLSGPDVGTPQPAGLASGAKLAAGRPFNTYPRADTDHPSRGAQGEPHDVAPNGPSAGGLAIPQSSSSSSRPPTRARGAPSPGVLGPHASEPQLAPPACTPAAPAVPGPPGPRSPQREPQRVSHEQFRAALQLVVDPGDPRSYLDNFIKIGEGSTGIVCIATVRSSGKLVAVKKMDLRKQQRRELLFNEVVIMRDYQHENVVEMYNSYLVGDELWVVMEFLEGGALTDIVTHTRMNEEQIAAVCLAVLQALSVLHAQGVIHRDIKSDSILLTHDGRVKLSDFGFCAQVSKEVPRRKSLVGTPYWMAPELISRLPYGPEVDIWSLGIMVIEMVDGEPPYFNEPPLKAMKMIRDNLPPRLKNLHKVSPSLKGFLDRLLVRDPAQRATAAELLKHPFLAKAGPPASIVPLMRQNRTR

- EC50: > 4 µM
SMILES: CC1(C)c2n[nH]c(Nc3nc(Cl)nc(N4CCC[C@H]4C(N)=O)n3)c2CN1C(=O)NC1C[C@@H]1c1ccccc1 (stereo partly specified)
